Structures can show the parent of a compound that is named as a salt. Where only a bound is given, the exact number is not on record here.

The subject of the test is DU-145 cells (prostate carcinoma). Put plainly: DU-145 cell growth inhibition, tetrazolium dye XTT viability endpoint. As to conditions: Homo sapiens, triplicate, five half-logarithmic dilutions, read-out: DU145 TC50. The test is classed as cell-based. The procedure:
Cell Preparation: DU-145 cells (prostate carcinoma; catalog #HTB-81) were obtained from the ATCC and propagated in EMEM with Earles BSS supplemented with 10% FBS (fetal bovine serum), 2 mM L-glutamine, 100 U/mL penicillin, 100 μg/mL streptomycin, 1 mM sodium pyruvate, and 0.1 mM NEAA (Non-Essential Amino Acids). DU-145 cells were passaged in T-75 flasks prior to use in the assay. On the day preceding the assay, the cells were split 1:2 to assure they were in an exponential growth phase at the time of infection. Total cell and viability quantification was performed using a hemocytometer and Trypan Blue dye exclusion. Cell viability was greater than 95% for the cells to be utilized in the assay. The cells were re-suspended at 1×10^5 cells per mL in tissue culture medium and added to the drug-containing microtiter plates in a volume of 100 μL.
Plate Format: Each plate contained cell control wells (cells only), experimental compound evaluation wells (cells plus compound only), and test compound colorimetric control wells (compound only). Samples were initially tested in triplicate for inhibition of DU-145 cell growth at 10 μM concentration for each compound with a single colorimetric control well. Secondary assay tested the compounds in triplicate using five half-logarithmic dilutions.
Tetrazolium Dye XTT Viability Endpoint: Following incubation at 37° C. in a 5% CO2 incubator, the test plates were stained with the tetrazolium dye XTT (2,3-bis(2-methoxy-4-nitro-5-sulfophenyl)-5-[(phenylamino)carbonyl]-2H-tetrazolium hydroxide). XTT was metabolized by the mitochondrial enzymes of metabolically active cells to a soluble formazan product, allowing rapid quantitative analysis of the inhibition of DU-145 […] by anti-prostate cancer test substances. XTT solution was prepared daily as a stock of 1 mg/mL in RPMI1640. Phenazine methosulfate (PMS) solution was prepared at 0.15 mg/mL in PBS (Phosphate—Buffered Saline) and stored in the dark at −20° C. XTT/PMS stock was prepared immediately before use by adding 40 μL of PMS per ml of XTT solution. Fifty microliters of XTT/PMS was added to each well of the plate and the plate was reincubated for 4 hours at 37° C. Plates were sealed with adhesive plate sealers and shaken gently or inverted several times to mix the soluble formazan product and the plate was read spectrophotometrically at 450/650 nm with a Molecular Devices Vmax plate reader.
IC50 represents the concentration of a drug that is required for 50% inhibition in vitro.
As to `CC/C(=C(\c1ccccc1)c1ccc(OCCN(C)C)cc1)c1ccccc1` [Tamoxifen Citrate, reference compound], the CC50 turned out to be 20 µM. Then `FC(F)(F)Oc1ccc2nc(-c3ccco3)[nH]c2c1`, with 1.8 µM; and `Cc1nc2ccc(OC(F)(F)F)cc2[nH]1`, with above 10 µM.

Regarding `FC(F)(F)Oc1ccc2nc(-c3ccccc3)[nH]c2c1`, the CC50 came out at 0.9 µM. Regarding `FC(F)(F)Oc1ccc2nc(-c3cccnc3)[nH]c2c1`, the CC50 is 4.6 µM. The same measure for `CCc1nc2ccc(OC(F)(F)F)cc2[nH]1`: above 10 µM.

These data come from patent US8293780B1, “Anti-cancer agents based on 6-trifluoromethoxybenzimidazole derivatives and method of making” (U.S. Department of Energy, priority 2009, dated 2012).
